Results on 24 molecules are retold here after US11524966B1 (Valo Early Discovery, Inc., priority 2017, dated 2022).

Structures are written as SMILES. Where only a bound is given, the exact number is not on record here.

The target in this test is T1, USP25 (USP25-His6, Boston Biochem E-546) (Homo sapiens, UniProt Q9UHP3).
T1 construct: His6; purchased Boston Biochem E-546
T1 sequence (Q9UHP3 1-1055): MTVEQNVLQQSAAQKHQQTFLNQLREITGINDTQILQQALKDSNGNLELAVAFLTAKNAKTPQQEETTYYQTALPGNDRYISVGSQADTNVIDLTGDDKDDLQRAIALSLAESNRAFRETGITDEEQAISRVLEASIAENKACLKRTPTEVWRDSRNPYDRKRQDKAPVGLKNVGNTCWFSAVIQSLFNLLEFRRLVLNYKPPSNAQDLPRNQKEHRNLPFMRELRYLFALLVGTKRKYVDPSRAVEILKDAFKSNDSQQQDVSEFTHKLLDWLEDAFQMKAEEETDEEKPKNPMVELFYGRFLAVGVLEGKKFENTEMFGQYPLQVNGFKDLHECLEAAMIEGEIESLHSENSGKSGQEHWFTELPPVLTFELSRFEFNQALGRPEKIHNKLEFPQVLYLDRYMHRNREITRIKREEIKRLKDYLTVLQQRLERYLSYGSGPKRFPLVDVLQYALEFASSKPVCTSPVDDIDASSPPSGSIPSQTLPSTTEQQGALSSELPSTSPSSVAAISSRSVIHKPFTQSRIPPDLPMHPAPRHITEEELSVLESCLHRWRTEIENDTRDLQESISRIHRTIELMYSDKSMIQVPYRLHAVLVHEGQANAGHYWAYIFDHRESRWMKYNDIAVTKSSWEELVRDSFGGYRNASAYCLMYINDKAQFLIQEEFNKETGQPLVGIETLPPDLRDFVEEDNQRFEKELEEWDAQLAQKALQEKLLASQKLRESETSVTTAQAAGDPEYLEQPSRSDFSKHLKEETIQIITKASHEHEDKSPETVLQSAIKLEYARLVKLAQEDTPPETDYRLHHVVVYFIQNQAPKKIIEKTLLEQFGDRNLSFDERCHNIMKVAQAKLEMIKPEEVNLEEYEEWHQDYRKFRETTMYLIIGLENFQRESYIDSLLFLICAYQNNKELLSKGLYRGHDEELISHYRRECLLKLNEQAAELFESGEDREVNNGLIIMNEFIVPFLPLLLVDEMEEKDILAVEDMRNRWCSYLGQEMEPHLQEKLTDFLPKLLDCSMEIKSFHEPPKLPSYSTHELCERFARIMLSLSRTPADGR
Nature of the test: Ubiquitin-Rhodamine 110 Assay for USP25 Activity, Example A-2. It counts as biochemical. As to conditions: Ub-Rh110 assay, Example A-2; read-out: USP25 A-2 IC50 range. The procedure: The assay was performed in a final volume of 9 μL in assay buffer containing 20 mM Tris-HCl (pH 8.0, (1M Tris-HCl, pH 8.0 solution; Corning 46-031-CM)), 3 mM BME (2-Mercaptoethanol; Sigma 63689-25ML-F), 0.03% BGG (0.22 μM filtered, Sigma, G7516-25G), and 0.01% Triton X-100 (Sigma, T9284-10L). Nanoliter quantities of 10-point, 3-fold serial dilution in DMSO was pre-dispensed into 1536 assay plates (Corning, #3724BC) for a final test concentration of 25 μM to 1.3 nM, top to lowest dose, respectively. Enzyme USP25, construct USP25-His6, (Boston Biochem E-546). Concentration and incubation times were optimized for the maximal signal-to-background while maintaining initial velocity conditions at a fixed substrate concentration. The final concentration of the enzyme in the assay was 75 pM. Final substrate (Ub-Rh110; Ubiquitin-Rhodamine 110, R&D Systems #U-555) concentration was 25 nM with [Ub-Rh110]<<Km. 3 μL of 2× enzyme was added to assay plates (pre-stamped with compound) preincubated with […] for 30 minutes and then 3 μL of 2×Ub-Rh110 was added to assay plates. Plates were incubated for 45 minutes at room temperature before addition of 3 μL of stop solution (final concentration of 10 mM citric acid (Sigma, 251275-500G)). Fluorescence was read on the Envision (Excitation at 485 nm and Emission at 535 nm; Perkin Elmer) or on the PheraSTAR (Excitation at 485 nm and Emission at 535 nm; BMG Labtech).
IC50 values were determined by curve fitting of the standard 4 parameter logistic fitting algorithm included in the Activity Base software package: IDBS XE Designer Model 205. Data is fitted using the Levenburg Marquardt algorithm.

For `Cc1nc2sc(C(=O)N[C@H]3COc4cc(N5CC6CCC(C5)N6)ccc4C3)c(N)c2s1` [Example 1-23, N-((3R)-7-(3,8-diazabicyclo[3.2.1]octan-3-yl)chroman-3-yl)-6-amino-2-methylthieno[2,3-d]thiazole-5-carboxamide], the IC50 – broadly, the concentration at which inhibition is half-maximal – fell in the range of 200 to 2000 nM.

On to `Cc1nc2sc(C(=O)N[C@@H]3COc4cc(N5CC6CCC(C5)N6)ccc4C3)c(N)c2s1` [Example 1-24, N-((3S)-7-(3,8-diazabicyclo[3.2.1]octan-3-yl)chroman-3-yl)-6-amino-2-methylthieno[2,3-d]thiazole-5-carboxamide], for which the IC50 is > 2000 nM.

On to `Cc1nc2sc(C(=O)N[C@H]3COc4cc(N5CCNCC5)ccc4C3)c(N)c2s1` [Example 1-25, (R)-6-amino-2-methyl-N-(7-(piperazin-1-yl)chroman-3-yl)thieno[2,3-d]thiazole-5-carboxamide], for which the IC50 lay within 200 to 2000 nM.

For the molecule `Cc1nc2sc(C(=O)N[C@@H]3COc4cc(N5CCNCC5)ccc4C3)c(N)c2s1` [Example 1-26, (S)-6-amino-2-methyl-N-(7-(piperazin-1-yl)chroman-3-yl)thieno[2,3-d]thiazole-5-carboxamide], the IC50 is > 2000 nM.

Turning to `Cc1ccc2c(N)c(C(=O)N[C@H]3COc4c(ccc(N5CCNCC5)c4F)C3)sc2n1` [Example 1-33, (R)-3-amino-N-(8-fluoro-7-(piperazin-1-yl)chroman-3-yl)-6-methylthieno[2,3-b]pyridine-2-carboxamide], the IC50 lay in the range of 50 to 200 nM.

Consider `Cc1ccc2c(N)c(C(=O)N[C@@H]3COc4c(ccc(N5CCNCC5)c4F)C3)sc2n1` [Example 1-34, (S)-3-amino-N-(8-fluoro-7-(piperazin-1-yl)chroman-3-yl)-6-methylthieno[2,3-b]pyridine-2-carboxamide], for which the IC50 is > 2000 nM.

Turning to `Cc1ccc2c(N)c(C(=O)N[C@H]3COc4cc(N5CCNCC5)c(F)cc4C3)sc2n1` [Example 1-35, (R)-3-amino-N-(6-fluoro-7-(piperazin-1-yl)chroman-3-yl)-6-methylthieno[2,3-b]pyridine-2-carboxamide], the IC50 lay within 200 to 2000 nM.

As for `Cc1ccc2c(N)c(C(=O)N[C@@H]3COc4cc(N5CCNCC5)c(F)cc4C3)sc2n1` [Example 1-36, (S)-3-amino-N-(6-fluoro-7-(piperazin-1-yl)chroman-3-yl)-6-methylthieno[2,3-b]pyridine-2-carboxamide], the IC50 was > 2000 nM.

Regarding `Cc1ccc2c(N)c(C(=O)N[C@H]3COc4cc(N5CC6CNCC(C5)C6(F)F)ccc4C3)sc2n1` [Example 2-1, 3-Amino-N-((3R)-7-(9,9-difluoro-3,7-diazabicyclo[3.3.1]nonan-3-yl)chroman-3-yl)-6-methylthieno[2,3-b]pyridine-2-carboxamide], the half-inhibitory concentration (IC50) was 1 to 50 nM.

Regarding `Cc1ccc2c(N)c(C(=O)N[C@H]3COc4cc(N5CC6CC(C5)N6)ccc4C3)sc2n1` [Example 2-2, N-((3R)-7-(3,6-diazabicyclo[3.1.1]heptan-3-yl)chroman-3-yl)-3-amino-6-methylthieno[2,3-b]pyridine-2-carboxamide], the 50% inhibitory concentration (IC50) lay within 50 to 200 nM.

For `Cc1ccc2c(N)c(C(=O)N[C@@H]3COc4cc(N5CC6CC(C5)N6)ccc4C3)sc2n1` [Example 2-3, N-((3S)-7-(3,6-diazabicyclo[3.1.1]heptan-3-yl)chroman-3-yl)-3-amino-6-methylthieno[2,3-b]pyridine-2-carboxamide], the IC50 was > 2000 nM.

Consider `Cc1ccc2c(N)c(C(=O)N[C@H]3COc4cc(N5CCNC[C@@H]5C)ccc4C3)sc2n1` [Example 2-4, 3-amino-6-methyl-N-((R)-7-((S)-2-methylpiperazin-1-yl)chroman-3-yl)thieno[2,3-b]pyridine-2-carboxamide], for which the IC50 lay within 1 to 50 nM.

For the molecule `Cc1ccc2c(N)c(C(=O)N[C@H]3COc4cc(N5CCNC[C@H]5C)ccc4C3)sc2n1` [Example 2-5, 3-amino-6-methyl-N-((R)-7-((R)-2-methylpiperazin-1-yl)chroman-3-yl)thieno[2,3-b]pyridine-2-carboxamide], the IC50 lay within 1 to 50 nM.

As for `Cc1ccc2c(N)c(C(=O)N[C@H]3COc4cc(N5C6CCC5CNC6)ccc4C3)sc2n1` [Example 2-6, N-((3R)-7-(3,8-diazabicyclo[3.2.1]octan-8-yl)chroman-3-yl)-3-amino-6-methylthieno[2,3-b]pyridine-2-carboxamide], the half-maximal inhibitory concentration (IC50) is 50 to 200 nM.

`Cc1ccc2c(N)c(C(=O)N[C@H]3COc4cc(N5CCCC56CNC6)ccc4C3)sc2n1` [Example 2-7, (R)-N-(7-(2,5-diazaspiro[3.4]octan-5-yl)chroman-3-yl)-3-amino-6-methylthieno[2,3-b]pyridine-2-carboxamide]: the IC50 was 200 to 2000 nM.

For the molecule `Cc1ccc2c(N)c(C(=O)N[C@H]3COc4cc(N5CCN[C@@H](C)C5)ccc4C3)sc2n1` [Example 2-8, 3-amino-6-methyl-N-((R)-7-((S)-3-methylpiperazin-1-yl)chroman-3-yl)thieno[2,3-b]pyridine-2-carboxamide], the IC50 fell in the range of 200 to 2000 nM.

With `Cc1ccc2c(N)c(C(=O)N[C@H]3COc4cc(N5CCN[C@H](C)C5)ccc4C3)sc2n1` [Example 2-9, 3-amino-6-methyl-N-((R)-7-((R)-3-methylpiperazin-1-yl)chroman-3-yl)thieno[2,3-b]pyridine-2-carboxamide], the half-maximal inhibitory concentration (IC50) fell in the range of 200 to 2000 nM.

As for `Cc1ccc2c(N)c(C(=O)N[C@H]3COc4cc(N5CCNCC56COC6)ccc4C3)sc2n1` [Example 2-10], the IC50 fell in the range of 50 to 200 nM.

As to `Cc1cnc2c(N)c(C(=O)N[C@H]3COc4cc(N5CC6CC(C5)N6)ccc4C3)sc2n1` [Example 2-11, N-((3R)-7-(3,6-diazabicyclo[3.1.1]heptan-3-yl)chroman-3-yl)-7-amino-3-methylthieno[2,3-b]pyrazine-6-carboxamide], the IC50 lay in the range of 50 to 200 nM.

For the molecule `Cc1cnc2c(N)c(C(=O)N[C@H]3COc4cc(N5CC6COCC(C5)N6)ccc4C3)sc2n1` [Example 2-12, N-((3R)-7-(3-oxa-7,9-diazabicyclo[3.3.1]nonan-7-yl)chroman-3-yl)-7-amino-3-methylthieno[2,3-b]pyrazine-6-carboxamide], the IC50 lay in the range of 200 to 2000 nM.

Take `Cc1cnc2c(N)c(C(=O)N[C@H]3COc4cc(N5CC6CNCC(C5)O6)ccc4C3)sc2n1` [Example 2-13, N-((3R)-7-(9-oxa-3,7-diazabicyclo[3.3.1]nonan-3-yl)chroman-3-yl)-7-amino-3-methylthieno[2,3-b]pyrazine-6-carboxamide]: the IC50 was 200 to 2000 nM.

As for `Nc1c(C(=O)N[C@H]2COc3cc(N4CC5CC(C4)N5)ccc3C2)sc2nc(F)ccc12` [Example 2-14, N-((3R)-7-(3,6-diazabicyclo[3.1.1]heptan-3-yl)chroman-3-yl)-3-amino-6-fluorothieno[2,3-b]pyridine-2-carboxamide], the IC50 was in the range of 200 to 2000 nM.

For `Cc1nc2sc(C(=O)N[C@H]3COc4cc(N5CC6CC(C5)N6)ccc4C3)c(N)c2cc1F` [Example 2-15, N-((3R)-7-(3,6-diazabicyclo[3.1.1]heptan-3-yl)chroman-3-yl)-3-amino-5-fluoro-6-methylthieno[2,3-b]pyridine-2-carboxamide], the IC50 lay within 50 to 200 nM.

In the case of `COc1nc2sc(C(=O)N[C@H]3COc4cc(N5CCNCC5)ccc4C3)c(N)c2cc1F` [Example 2-16, (R)-3-amino-5-fluoro-6-methoxy-N-(7-(piperazin-1-yl)chroman-3-yl)thieno[2,3-b]pyridine-2-carboxamide], the IC50 lay within 200 to 2000 nM.
